# Patent US4299915A (priority 1977, dated 1981)
# Where two headings read alike, the source gives them in different places.
# Tests used:
# [1] = test system: 5-methyltryptophan-sensitive bacteria; conditions: cited from earlier work
# 8AG^R clones = assay type: cell-based, S. typhimurium; conditions: for plating efficiency, 8AG w/cells: 50 ug/ml 8AG plus 10^6 8AG^S cells; for plating efficiency, 8AG: 50 ug/ml 8AG, control 1.00
# 8AG^R mutants = experiment: Uptake of tagged 8AG by 8AG^R mutant clones; assay type: cell-based, S. typhimurium
# wild-type control = assay type: cell-based, S. typhimurium
# [2] = test system: S. typhimurium strain TM35
# [3] = test system: 8AG^R mutant fraction of S. typhimurium cultures
# [4] = test system: mixed population of 8AG^S and 8AG^R cells; experiment: Reconstruction experiment 2: mixed 8AG^R/8AG^S population exposed to the mutation assay protocol; conditions: 2 hr
smiles,measurement,setting,value
Cc1ccc2[nH]cc(C[C@H](N)C(=O)O)c2c1 [5-methyltryptophan],growth inhibition of 5-methyltryptophan-sensitive bacteria,[1],not completely inhibited
same,effect of varying the concentration on observed mutant fraction,[1]; varying concentration,changes the observed mutant fraction
"Nc1nc2nn[nH]c2c(=O)[nH]1 [8AG, 8-azaguanine]","effect on plating efficiency, 8AG alone",8AG^R clones,no effect
same,"effect on plating efficiency, 8AG with 8AG^S cells",8AG^R clones,did decrease plating efficiency slightly
same,"plating efficiency, 8AG w/cells",8AG^R clones; clone S-1,0.8 ± .07
same,"plating efficiency, 8AG",8AG^R clones; clone S-1,0.93 ± .05
same,"plating efficiency, 8AG w/cells",8AG^R clones; clone S-2,1.04 ± .03
same,"plating efficiency, 8AG",8AG^R clones; clone S-2,1.16 ± .03
same,"plating efficiency, 8AG w/cells","8AG^R clones; clone S-3, * statistically less than control (p < .05)",0.87 ± .08
same,"plating efficiency, 8AG",8AG^R clones; clone S-3,0.95 ± .03
same,"plating efficiency, 8AG w/cells","8AG^R clones; clone S-4, * statistically less than control (p < .05)",0.83 ± .03
same,"plating efficiency, 8AG",8AG^R clones; clone S-4,0.98 ± .01
same,"plating efficiency, 8AG w/cells","8AG^R clones; clone S-5, * statistically less than control (p < .05)",0.73 ± .08
same,"plating efficiency, 8AG",8AG^R clones; clone S-5,0.92 ± .01
same,"activity (8AG incorporation), mutants with no detectable activity",8AG^R mutants; 9 of the mutants tested,< 0.04%
same,8AG Inc. (% wild-type),8AG^R mutants; mutant 9AA-1 (induced by 9AA),< 0.04 % wild-type
same,8AG Inc. (% wild-type),8AG^R mutants; mutant 9AA-2 (induced by 9AA),< 0.04 % wild-type
same,8AG Inc. (% wild-type),8AG^R mutants; mutant 9AA-3 (induced by 9AA),< 0.04 % wild-type
same,8AG Inc. (% wild-type),8AG^R mutants; mutant 9AA-4 (induced by 9AA),< 0.04 % wild-type
same,8AG Inc. (% wild-type),8AG^R mutants; mutant 9AA-5 (induced by 9AA),< 0.04 % wild-type
same,8AG Inc. (% wild-type),8AG^R mutants; mutant BPL-1 (induced by βPL),0.1 % wild-type
same,8AG Inc. (% wild-type),8AG^R mutants; mutant BPL-2 (induced by βPL),2.5 % wild-type
same,8AG Inc. (% wild-type),8AG^R mutants; mutant BPL-3 (induced by βPL),7.1 % wild-type
same,8AG Inc. (% wild-type),8AG^R mutants; mutant BPL-4 (induced by βPL),1.8 % wild-type
same,8AG Inc. (% wild-type),8AG^R mutants; mutant BPL-5 (induced by βPL),1.2 % wild-type
same,8AG Inc. (% wild-type),8AG^R mutants; mutant ICR-1 (induced by ICR191),< 0.04 % wild-type
same,8AG Inc. (% wild-type),8AG^R mutants; mutant ICR-2 (induced by ICR191),< 0.04 % wild-type
same,8AG Inc. (% wild-type),8AG^R mutants; mutant ICR-3 (induced by ICR191),0.80 % wild-type
same,8AG Inc. (% wild-type),8AG^R mutants; mutant ICR-4 (induced by ICR191),< 0.04 % wild-type
same,8AG Inc. (% wild-type),8AG^R mutants; mutant ICR-5 (induced by ICR191),11.8 % wild-type
same,8AG Inc. (% wild-type),8AG^R mutants; mutant NG-1 (induced by MNNG),0.04 % wild-type
same,8AG Inc. (% wild-type),8AG^R mutants; mutant NG-2 (induced by MNNG),5.1 % wild-type
same,8AG Inc. (% wild-type),8AG^R mutants; mutant NG-3 (induced by MNNG),2.2 % wild-type
same,8AG Inc. (% wild-type),8AG^R mutants; mutant NG-4 (induced by MNNG),4.9 % wild-type
same,8AG Inc. (% wild-type),8AG^R mutants; mutant NG-5 (induced by MNNG),3.2 % wild-type
same,8AG Inc. (% wild-type),8AG^R mutants; mutant S-1 (spontaneous),2.4 % wild-type
same,8AG Inc. (% wild-type),8AG^R mutants; mutant S-2 (spontaneous),1.7 % wild-type
same,8AG Inc. (% wild-type),8AG^R mutants; mutant S-3 (spontaneous),18.3 % wild-type
same,8AG Inc. (% wild-type),8AG^R mutants; mutant S-4 (spontaneous),5.9 % wild-type
same,8AG Inc. (% wild-type),8AG^R mutants; mutant S-5 (spontaneous),19.5 % wild-type
same,8AG incorporation rate of the wild-type control,wild-type control,5×10^-18 moles/cell-hr
same,Uptake in the control over time,wild-type control,linear through the 2 hr incubation
"Nc1c2ccccc2nc2ccccc12 [9AA, 9-aminoacridine]",induced mutant fractions (M.F.),[2],significantly higher than background levels
COc1ccc2nc3cc(Cl)ccc3c(NCCCNCCCl)c2c1 [ICR-191],8AG^R mutant fraction when cultures are allowed to grow before plating,[3],drops significantly and then stabilizes at a constant level
same,induced mutant fractions (M.F.),[2],significantly higher than background levels
"O=C1CCO1 [βPL, β-propiolactone]",ratio of 8AG^R cells to 8AG^S cells in the treated population,"[4]; 0, 0.16, and 1.60 mM",did not suffer significantly
same,survival of the mixed population,"[4]; high concentration (0, 0.16 and 1.60 mM tested)",killed a significant portion of the mixed population
same,induced mutant fractions (M.F.),[2],significantly higher than background levels
